Experimental data reported in ChEMBL document CHEMBL1201862, “PubChem BioAssay data set” (2004).
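Results reflect a 48-hour exposure of cells in 96-well plates to compound at five concentrations. GI50 is the concentration that inhibits growth by half.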 Active and inactive are the calls of the source. Cut-off read from the data, not from the text of the source: active = GI50 up to about 1.1 µM and inactive = higher.

Columns and labels:
Test in all cases: NCI anticancer screen, dose series, 48 h
UACC-257 = test system: UACC-257
TK-10 = test system: TK-10
Malme-3M = test system: Malme-3M
SW-620 = test system: SW-620
NCI-H460 = test system: NCI-H460
CCRF-CEM = test system: CCRF-CEM
SK-OV-3 = test system: SK-OV-3
HL-60 = test system: HL-60
SNB-78 = test system: SNB-78
OVCAR-3 = test system: OVCAR-3
DMS-273 = test system: DMS-273
M19-MEL = test system: M19-MEL
SR = test system: SR
IGROV-1 = test system: IGROV-1
HCC 2998 = test system: HCC 2998
M14 = test system: M14
U-251 = test system: U-251
NCI-H226 = test system: NCI-H226
LOX IMVI = test system: LOX IMVI
SF-295 = test system: SF-295
HT-29 = test system: HT-29
OVCAR-5 = test system: OVCAR-5
XF498 = test system: XF498
CAKI-1 = test system: CAKI-1
DLD-1 = test system: DLD-1
HOP-18 = test system: HOP-18
K562 = test system: K562
KM12 = test system: KM12
LXFL 529 = test system: LXFL 529
A549 = test system: A549
COLO 205 = test system: COLO 205
RPMI-8226 = test system: RPMI-8226
HOP-62 = test system: HOP-62
SF-539 = test system: SF-539
NCI-H522 = test system: NCI-H522
SNB-75 = test system: SNB-75
SN12C = test system: SN12C
A498 = test system: A498
786-0 = test system: 786-0
MOLT-4 = test system: MOLT-4
RXF 393 = test system: RXF 393
SK-MEL-2 = test system: SK-MEL-2
EKVX = test system: EKVX
ACHN = test system: ACHN
HCT-116 = test system: HCT-116
OVCAR-4 = test system: OVCAR-4
HCT-15 = test system: HCT-15
OVCAR-8 = test system: OVCAR-8
SNB-19 = test system: SNB-19
KM-20L2 = test system: KM-20L2
SK-MEL-5 = test system: SK-MEL-5
UO-31 = test system: UO-31
UACC-62 = test system: UACC-62
NCI-H23 = test system: NCI-H23
HOP-92 = test system: HOP-92
SF-268 = test system: SF-268
MCF7 = test system: MCF7
SK-MEL-28 = test system: SK-MEL-28
DMS-114 = test system: DMS-114
NCI/ADR-RES = test system: NCI/ADR-RES

CCCCn1c(-c2ccccc2)cs/c1=N\NC(=O)Cn1c(C)nc2ccccc21
GI50 (UACC-257): 34.5 µM (inactive) | GI50 (TK-10): > 100 µM (inactive) | GI50 (Malme-3M): 35.7 µM (inactive) | GI50 (SW-620): > 100 µM (inactive) | GI50 (NCI-H460): 76.7 µM (inactive) | GI50 (CCRF-CEM): 17.9 µM (inactive) | GI50 (SK-OV-3): > 100 µM (inactive) | GI50 (HL-60): 14.4 µM (inactive) | GI50 (SNB-78): > 100 µM (inactive) | GI50 (OVCAR-3): 40.6 µM (inactive) | GI50 (DMS-273): 76 µM (inactive) | GI50 (M19-MEL): 30.4 µM (inactive) | GI50 (SR): 11.5 µM (inactive) | GI50 (IGROV-1): > 100 µM (inactive) | GI50 (HCC 2998): 89.1 µM (inactive) | GI50 (M14): 53.2 µM (inactive) | GI50 (U-251): 96.2 µM (inactive) | GI50 (NCI-H226): 35.8 µM (inactive) | GI50 (LOX IMVI): 32.6 µM (inactive) | GI50 (SF-295): 33.5 µM (inactive) | GI50 (HT-29): > 100 µM (inactive) | GI50 (OVCAR-5): > 100 µM (inactive) | GI50 (XF498): 31.9 µM (inactive) | GI50 (CAKI-1): 62.5 µM (inactive) | GI50 (DLD-1): > 100 µM (inactive) | GI50 (HOP-18): > 100 µM (inactive) | GI50 (K562): 14.5 µM (inactive) | GI50 (KM12): 70.8 µM (inactive) | GI50 (LXFL 529): 25.1 µM (inactive) | GI50 (A549): 81.1 µM (inactive) | GI50 (COLO 205): 17.1 µM (inactive) | GI50 (RPMI-8226): 14.7 µM (inactive) | GI50 (HOP-62): > 100 µM (inactive) | GI50 (SF-539): > 100 µM (inactive) | GI50 (NCI-H522): 30.2 µM (inactive) | GI50 (SNB-75): 60.1 µM (inactive) | GI50 (SN12C): 19.8 µM (inactive) | GI50 (A498): > 100 µM (inactive) | GI50 (786-0): > 100 µM (inactive) | GI50 (MOLT-4): 16.3 µM (inactive) | GI50 (RXF 393): 34.3 µM (inactive) | GI50 (SK-MEL-2): > 100 µM (inactive) | GI50 (EKVX): 47.1 µM (inactive) | GI50 (ACHN): 75.9 µM (inactive) | GI50 (HCT-116): 97.3 µM (inactive) | GI50 (OVCAR-4): 6.12 µM (inactive) | GI50 (HCT-15): 97.9 µM | GI50 (OVCAR-8): > 100 µM (inactive) | GI50 (SNB-19): > 100 µM (inactive) | GI50 (KM-20L2): 84.9 µM (inactive) | GI50 (SK-MEL-5): 20.4 µM (inactive) | GI50 (UO-31): 55.6 µM (inactive) | GI50 (UACC-62): 58.6 µM (inactive) | GI50 (NCI-H23): 8.75 µM (inactive)

CC(=O)OC1C(O)C(C)OC(OC(=O)C2CCC3C(C2)OC2(CC(OC(=O)/C=C/c4ccccc4)C(C)CO2)C32CO2)C1OC1OC(C)C(O)C(O)C1O (stereo not drawn)
GI50 (UACC-257): 0.0325 µM (active) | GI50 (Malme-3M): 0.0378 µM (active) | GI50 (SW-620): 0.0504 µM (active) | GI50 (NCI-H460): 0.0448 µM (active) | GI50 (CCRF-CEM): 0.0342 µM (active) | GI50 (SK-OV-3): 0.0586 µM (active) | GI50 (HL-60): 0.0336 µM (active) | GI50 (SNB-78): 0.0352 µM (active) | GI50 (OVCAR-3): 0.0578 µM (active) | GI50 (DMS-273): 0.0416 µM (active) | GI50 (M19-MEL): 0.0332 µM (active) | GI50 (IGROV-1): 0.0378 µM (active) | GI50 (HCC 2998): 0.0373 µM (active) | GI50 (HOP-92): 0.0325 µM (active) | GI50 (SF-268): 0.0362 µM (active) | GI50 (U-251): 0.04 µM (active) | GI50 (NCI-H226): 0.0435 µM (active) | GI50 (LOX IMVI): 0.115 µM (active) | GI50 (SF-295): 0.0776 µM (active) | GI50 (HT-29): 0.0419 µM (active) | GI50 (OVCAR-5): 0.091 µM (active) | GI50 (XF498): 0.0504 µM (active) | GI50 (CAKI-1): 2.08 µM (inactive) | GI50 (DLD-1): 0.335 µM (active) | GI50 (HOP-18): 0.113 µM (active) | GI50 (K562): 0.0383 µM (active) | GI50 (KM12): 0.0371 µM (active) | GI50 (A549): 0.118 µM (active) | GI50 (COLO 205): 0.0341 µM (active) | GI50 (RPMI-8226): 0.0361 µM (active) | GI50 (HOP-62): 0.0794 µM (active) | GI50 (SF-539): 0.0448 µM (active) | GI50 (NCI-H522): 0.0325 µM (active) | GI50 (SNB-75): 0.0468 µM (active) | GI50 (SN12C): 0.0514 µM (active) | GI50 (A498): 0.0702 µM (active) | GI50 (MOLT-4): 0.0337 µM (active) | GI50 (RXF 393): 0.0644 µM (active) | GI50 (MCF7): 0.0325 µM (active) | GI50 (SK-MEL-2): 0.0325 µM (active) | GI50 (EKVX): 0.0417 µM (active) | GI50 (SK-MEL-28): 0.0355 µM (active) | GI50 (DMS-114): 0.0371 µM (active) | GI50 (HCT-116): 0.038 µM (active) | GI50 (OVCAR-4): 0.0325 µM (active) | GI50 (HCT-15): 3.96 µM | GI50 (OVCAR-8): 0.0789 µM (active) | GI50 (SNB-19): 0.0399 µM (active) | GI50 (KM-20L2): 0.0425 µM (active) | GI50 (NCI/ADR-RES): 21.7 µM (inactive) | GI50 (SK-MEL-5): 0.0332 µM (active) | GI50 (UO-31): 7.78 µM (inactive) | GI50 (UACC-62): 0.039 µM (active) | GI50 (NCI-H23): 0.0467 µM (active)

COc1cc2ccnc(C#N)c2cc1OCc1ccccc1
GI50 (UACC-257): > 100 µM (inactive) | GI50 (TK-10): > 100 µM (inactive) | GI50 (Malme-3M): > 100 µM (inactive) | GI50 (SW-620): > 100 µM (inactive) | GI50 (NCI-H460): > 100 µM (inactive) | GI50 (CCRF-CEM): > 100 µM (inactive) | GI50 (SNB-78): > 100 µM (inactive) | GI50 (OVCAR-3): > 100 µM (inactive) | GI50 (HCC 2998): > 100 µM (inactive) | GI50 (M14): > 100 µM (inactive) | GI50 (SF-268): 39.2 µM (inactive) | GI50 (U-251): 48 µM (inactive) | GI50 (SF-295): 32.1 µM (inactive) | GI50 (HT-29): > 100 µM (inactive) | GI50 (OVCAR-5): > 100 µM (inactive) | GI50 (XF498): 53.6 µM (inactive) | GI50 (CAKI-1): > 100 µM (inactive) | GI50 (DLD-1): > 100 µM (inactive) | GI50 (HOP-18): > 100 µM (inactive) | GI50 (K562): > 100 µM (inactive) | GI50 (KM12): > 100 µM (inactive) | GI50 (LXFL 529): > 100 µM (inactive) | GI50 (A549): > 100 µM (inactive) | GI50 (RPMI-8226): > 100 µM (inactive) | GI50 (HOP-62): 35.6 µM (inactive) | GI50 (SF-539): 49.9 µM (inactive) | GI50 (NCI-H522): 50 µM (inactive) | GI50 (SNB-75): 21.9 µM (inactive) | GI50 (SN12C): > 100 µM (inactive) | GI50 (A498): 87.1 µM (inactive) | GI50 (786-0): 37.4 µM (inactive) | GI50 (MOLT-4): > 100 µM (inactive) | GI50 (SK-MEL-2): 64.1 µM (inactive) | GI50 (EKVX): > 100 µM (inactive) | GI50 (SK-MEL-28): > 100 µM (inactive) | GI50 (ACHN): > 100 µM (inactive) | GI50 (HCT-116): > 100 µM (inactive) | GI50 (OVCAR-4): 33.7 µM (inactive) | GI50 (HCT-15): > 100 µM | GI50 (OVCAR-8): > 100 µM (inactive) | GI50 (SNB-19): 84.1 µM (inactive) | GI50 (KM-20L2): > 100 µM (inactive) | GI50 (SK-MEL-5): > 100 µM (inactive) | GI50 (UO-31): > 100 µM (inactive) | GI50 (NCI-H23): > 100 µM (inactive)
